Assay results reported in publication PMC11973759 (Journal for Immunotherapy of Cancer, 2025).

Test system: M2 macrophages
Assay type: cell-based, human
Settings: inhibitor 30 min, TB511 1 µM 1 h, 24 h fresh medium, n=3

Compound | Effect of inhibitor on TB511-induced apoptosis (CCK8)
CN(C)CCCN1c2ccccc2Sc2ccc(Cl)cc21 [CPZ, chlorpromazine] | decreasing TB511-induced apoptosis
C=C1[C@@H](C)[C@H]2[C@H](Cc3ccccc3)NC(=O)[C@]23[C@H](OC(C)=O)/C=C/[C@@](C)(O)C(=O)[C@@H](C)C/C=C/[C@H]3[C@@H]1O [CyD, cytochalasin D] | decreasing TB511-induced apoptosis
